Assay results as given in patent publication US20240109903A1, “SUBSTITUTED HETEROCYCLES FOR TREATING CANCER” (Northwestern University, priority 2022, published 2024).
Like-named read-outs stand apart in the source and are kept apart here.

Legend:
[1] = tested on: MV-4-11 acute myeloid leukemia cells; experiment: CellTiter-Glo 2.0 cell viability, MV-4-11; assay type: cell-based; details: Homo sapiens
Description: 2019 October; 94(4): 1813-1823.
Cell viability was assessed using the CellTiter-Glo 2.0 assay from Promega, which yields a signal proportional to the amount of ATP present in a cell population. Compounds were first dispensed into empty 96-well flat-bottom tissue culture-treated plates (Corning) using an Echo550. MV4-1 cells were diluted to a density of 0.1 million cells per ml, pipetted onto the compounds at a density of 1,000 cells per well for U937 and 3,000 cells per well for MV4-11, mixed, and incubated for 3 days at 37° C. with 5% C02. After incubating, 5 μl of cells from each well were added to 5 μl of CellTiter-Glo 2.0 reagent in a384-well white ProxiPlate (PerkinElmer), incubated for 20 minutes at ambient temperature, and luminescence was analyzed on an EnSpire plate reader. Graphing and regression analysis was performed in Graphpad Prism.

[2] = tested on: full NCI 60 cell panel; experiment: NCI 60 Cell One-dose screen; assay type: cell-based, human; details: single high dose 10^−5 M, NCI 60 panel
Source text: Compounds were submitted to the NCI 60 Cell screen and tested at a single high dose (10^−5 M) in the full NCI 60 cell panel (see the following reference for details of using NCI 60 human tumor cell lines for screening anticancer drugs: Shoemaker R H. The NCI60 human tumor cell line anticancer drug screen. Nature Rev Cancer 2006; 6: 813-23). The One-dose data is reported as a mean graph of the percent growth of treated cells. The number reported for the One-dose assay is growth relative to the no-drug control, and relative to the time zero number of cells. This allows detection of both growth inhibition (values between 0 and 100) and lethality (values less than 0). For example, a value of 100 means no growth inhibition. A value of 40 would mean 60% growth inhibition. A value of 0 means no net growth over the course of the experiment. A value of −40 would mean 40% lethality. A value of −100 means all cells are dead. FIGS. 1-8 show the mean graph of percent growth against the NCI-60 cell panel for NUCC-0226674, NUCC-0226679, NUCC-0226680, NUCC-0226683, NUCC-0226689, NUCC-0226694, NUCC-0226695, and NUCC-0226698.

[3] = tested on: EKVX; experiment: NCI 60 five-dose screen EKVX; assay type: cell-based; details: Homo sapiens, five-dose; for CC50: read-out: LC50 (the source's name) (converted)
[4] = tested on: HCT-116; experiment: NCI 60 five-dose screen HCT-116; assay type: cell-based; details: Homo sapiens, five-dose; for CC50: read-out: LC50 (the source's name) (converted)
[5] = tested on: HT29; experiment: NCI 60 five-dose screen HT29; assay type: cell-based; details: Homo sapiens, HT-29, five-dose; for CC50: read-out: LC50 (the source's name) (converted)
[6] = tested on: KM12; experiment: NCI 60 five-dose screen KM12; assay type: cell-based; details: Homo sapiens, five-dose; for CC50: read-out: LC50 (the source's name) (converted)
[7] = tested on: SF-268; experiment: NCI 60 five-dose screen SF-268; assay type: cell-based; details: Homo sapiens, five-dose; for CC50: read-out: LC50 (the source's name) (converted)
[8] = tested on: SF-295; experiment: NCI 60 five-dose screen SF-295; assay type: cell-based; details: Homo sapiens, five-dose; for CC50: read-out: LC50 (the source's name) (converted)
[9] = tested on: SNB-19; experiment: NCI 60 five-dose screen SNB-19; assay type: cell-based; details: Homo sapiens, five-dose; for CC50: read-out: LC50 (the source's name) (converted)
[10] = tested on: SNB-75; experiment: NCI 60 five-dose screen SNB-75; assay type: cell-based; details: Homo sapiens, five-dose; for CC50: read-out: LC50 (the source's name) (converted)
[11] = tested on: SK-MEL-2; experiment: NCI 60 five-dose screen SK-MEL-2; assay type: cell-based; details: Homo sapiens, five-dose; for CC50: read-out: LC50 (the source's name) (converted)
[12] = tested on: UACC-257; experiment: NCI 60 five-dose screen UACC-257; assay type: cell-based; details: Homo sapiens, five-dose; for CC50: read-out: LC50 (the source's name) (converted)
[13] = tested on: UACC-62; experiment: NCI 60 five-dose screen UACC-62; assay type: cell-based; details: Homo sapiens, five-dose; for CC50: read-out: LC50 (the source's name) (converted)
[14] = tested on: OVCAR-5; experiment: NCI 60 five-dose screen OVCAR-5; assay type: cell-based; details: Homo sapiens, five-dose; for CC50: read-out: LC50 (the source's name) (converted)
[15] = tested on: OVCAR-8; experiment: NCI 60 five-dose screen OVCAR-8; assay type: cell-based; details: Homo sapiens, five-dose; for CC50: read-out: LC50 (the source's name) (converted)
[16] = tested on: NCI/ADR-RES; experiment: NCI 60 five-dose screen NCI/ADR-RES; assay type: cell-based; details: Homo sapiens, five-dose; for CC50: read-out: LC50 (the source's name) (converted)
[17] = tested on: SK-OV-3; experiment: NCI 60 five-dose screen SK-OV-3; assay type: cell-based; details: Homo sapiens, five-dose; for CC50: read-out: LC50 (the source's name) (converted)
[18] = tested on: RXF 393; experiment: NCI 60 five-dose screen RXF 393; assay type: cell-based; details: Homo sapiens, five-dose; for CC50: read-out: LC50 (the source's name) (converted)
[19] = tested on: PC-3; experiment: NCI 60 five-dose screen PC-3; assay type: cell-based; details: Homo sapiens, five-dose; for CC50: read-out: LC50 (the source's name) (converted)
[20] = tested on: DU-145; experiment: NCI 60 five-dose screen DU-145; assay type: cell-based; details: Homo sapiens, five-dose; for CC50: read-out: LC50 (the source's name) (converted)
[21] = MV4-11, 72 h, MV-4-11 cells, 3 days, CellTiter-Glo 2.0, read-out: IC50 (uM) [Cell Type: MV-4-11]
[22] = MV4-11, bound stated in text, read-out: IC50 against MV-4-11 acute myeloid leukemia cells

Compound: OC1CCC(Cn2c(C(F)(F)F)cc3c(Cl)ncnc32)CC1 (stereo not drawn) [NUCC-0226689]
- IC50 [1, 21]: 0.689 µM
- IC50 [1, 22]: < 2 µM
- growth inhibition in the One-Dose Screen [2]: significant growth inhibition
- GI50 [3]: 12.9 µM
- IC50 [3]: 29.5 µM
- IC (TGI) [3]: 38.9 µM
- CC50 [3]: ≥ 100 µM
- GI50 [4]: 3.55 µM
- IC50 [4]: 4.17 µM
- IC (TGI) [4]: 15.8 µM
- CC50 [4]: 72.4 µM
- GI50 [5]: 15.5 µM
- IC50 [5]: 21.9 µM
- IC (TGI) [5]: 100 µM
- CC50 [5]: ≥ 100 µM
- GI50 [6]: 26.3 µM
- IC50 [6]: 37.2 µM
- IC (TGI) [6]: 93.3 µM
- CC50 [6]: ≥ 100 µM
- GI50 [7]: 2.51 µM
- IC50 [7]: 4.47 µM
- IC (TGI) [7]: 6.92 µM
- CC50 [7]: 37.2 µM
- GI50 [8]: 22.9 µM
- IC50 [8]: 38.9 µM
- IC (TGI) [8]: 83.2 µM
- CC50 [8]: ≥ 100 µM
- GI50 [9]: 13.5 µM
- IC50 [9]: 24 µM
- IC (TGI) [9]: 26.9 µM
- CC50 [9]: 53.7 µM
- GI50 [10]: 10.7 µM
- IC50 [10]: 23.4 µM
- IC (TGI) [10]: 22.9 µM
- CC50 [10]: 49 µM
- GI50 [11]: 13.2 µM
- IC50 [11]: 28.8 µM
- IC (TGI) [11]: 28.2 µM
- CC50 [11]: 58.9 µM
- GI50 [12]: 3.39 µM
- IC50 [12]: 7.76 µM
- IC (TGI) [12]: 14.1 µM
- CC50 [12]: 56.2 µM
- GI50 [13]: 5.37 µM
- IC50 [13]: 11.5 µM
- IC (TGI) [13]: 19.5 µM
- CC50 [13]: 51.3 µM
- GI50 [14]: 100 µM
- IC50 [14]: 100 µM
- IC (TGI) [14]: 100 µM
- CC50 [14]: ≥ 100 µM
- GI50 [15]: 2290 nM
- IC50 [15]: 3.63 µM
- IC (TGI) [15]: 5.37 µM
- CC50 [15]: 30.9 µM
- GI50 [16]: 26.3 µM
- IC50 [16]: 43.7 µM
- IC (TGI) [16]: 100 µM
- CC50 [16]: ≥ 100 µM
- GI50 [17]: 22.4 µM
- IC50 [17]: 67.6 µM
- IC (TGI) [17]: 100 µM
- CC50 [17]: ≥ 100 µM
- GI50 [18]: 12.6 µM
- IC50 [18]: 37.2 µM
- IC (TGI) [18]: 34.7 µM
- CC50 [18]: 97.7 µM
- GI50 [19]: 8.91 µM
- IC50 [19]: 15.5 µM
- IC (TGI) [19]: 36.3 µM
- CC50 [19]: ≥ 100 µM
- GI50 [20]: 7.94 µM
- IC50 [20]: 13.8 µM
- IC (TGI) [20]: 20.4 µM
- CC50 [20]: 46.8 µM

Compound: FC(F)(F)CN1CCN(CCn2c(C(F)(F)F)cc3c(Cl)ncnc32)CC1 [NUCC-0226683]
- IC50 [1, 21]: 1.83 µM
- IC50 [1, 22]: < 2 µM
- growth inhibition in the One-Dose Screen [2]: significant growth inhibition
- GI50 [3]: 11.7 µM
- IC50 [3]: 28.8 µM
- IC (TGI) [3]: 40.7 µM
- CC50 [3]: ≥ 100 µM
- GI50 [4]: 3.16 µM
- IC50 [4]: 3.72 µM
- IC (TGI) [4]: 13.2 µM
- CC50 [4]: 64.6 µM
- GI50 [5]: 5.5 µM
- IC50 [5]: 7.41 µM
- IC (TGI) [5]: 36.3 µM
- CC50 [5]: ≥ 100 µM
- GI50 [6]: 17.8 µM
- IC50 [6]: 30.2 µM
- IC (TGI) [6]: 39.8 µM
- CC50 [6]: 89.1 µM
- GI50 [7]: 5.25 µM
- IC50 [7]: 11.5 µM
- IC (TGI) [7]: 21.4 µM
- CC50 [7]: 70.8 µM
- GI50 [8]: 10.2 µM
- IC50 [8]: 17.8 µM
- IC (TGI) [8]: 25.7 µM
- CC50 [8]: 64.6 µM
- GI50 [9]: 13.2 µM
- IC50 [9]: 24 µM
- IC (TGI) [9]: 26.9 µM
- CC50 [9]: 53.7 µM
- GI50 [10]: 3.09 µM
- IC50 [10]: 14.8 µM
- IC (TGI) [10]: 14.1 µM
- CC50 [10]: 38.9 µM
- GI50 [11]: 15.8 µM
- IC50 [11]: 31.6 µM
- IC (TGI) [11]: 30.9 µM
- CC50 [11]: 60.3 µM
- GI50 [12]: 4.07 µM
- IC50 [12]: 11 µM
- IC (TGI) [12]: 17 µM
- CC50 [12]: 57.5 µM
- GI50 [13]: 4.68 µM
- IC50 [13]: 10 µM
- IC (TGI) [13]: 18.2 µM
- CC50 [13]: 47.9 µM
- GI50 [14]: 100 µM
- IC50 [14]: 100 µM
- IC (TGI) [14]: 100 µM
- CC50 [14]: ≥ 100 µM
- GI50 [15]: 3240 nM
- IC50 [15]: 4.47 µM
- IC (TGI) [15]: 11.7 µM
- CC50 [15]: 40.7 µM
- GI50 [16]: 19.1 µM
- IC50 [16]: 35.5 µM
- IC (TGI) [16]: 46.8 µM
- CC50 [16]: ≥ 100 µM
- GI50 [17]: 16.2 µM
- IC50 [17]: 38.9 µM
- IC (TGI) [17]: 43.7 µM
- CC50 [17]: ≥ 100 µM
- GI50 [18]: 11 µM
- IC50 [18]: 30.9 µM
- IC (TGI) [18]: 28.2 µM
- CC50 [18]: 72.4 µM
- GI50 [19]: 3.55 µM
- IC50 [19]: 5.01 µM
- IC (TGI) [19]: 12 µM
- CC50 [19]: 57.5 µM
- GI50 [20]: 12.6 µM
- IC50 [20]: 22.4 µM
- IC (TGI) [20]: 33.1 µM
- CC50 [20]: 87.1 µM
